Molecular target: T1, soluble epoxide hydrolase (sEH) (Homo sapiens, UniProt P34913)
T1 construct: gene EPHX2
T1 sequence (P34913 1-555): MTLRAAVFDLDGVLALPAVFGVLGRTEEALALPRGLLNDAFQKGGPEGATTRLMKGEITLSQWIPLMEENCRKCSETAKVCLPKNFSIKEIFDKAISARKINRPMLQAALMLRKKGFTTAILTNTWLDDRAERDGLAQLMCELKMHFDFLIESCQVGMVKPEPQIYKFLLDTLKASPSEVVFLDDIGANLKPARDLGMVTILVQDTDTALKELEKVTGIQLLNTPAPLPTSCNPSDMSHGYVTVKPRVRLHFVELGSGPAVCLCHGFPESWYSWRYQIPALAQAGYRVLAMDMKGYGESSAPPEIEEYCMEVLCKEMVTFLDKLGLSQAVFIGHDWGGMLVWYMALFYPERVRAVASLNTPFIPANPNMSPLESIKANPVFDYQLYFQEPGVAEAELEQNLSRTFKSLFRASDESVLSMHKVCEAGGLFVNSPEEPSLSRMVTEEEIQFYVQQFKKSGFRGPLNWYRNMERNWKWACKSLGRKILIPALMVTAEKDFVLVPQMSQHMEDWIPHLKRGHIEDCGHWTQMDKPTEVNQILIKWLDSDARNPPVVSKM
Assay: fluorescent PHOME hydrolysis assay with recombinant sEH; Lineweaver–Burk and Dixon plots
Assay type: biochemical

Ki: 3.5 µM
SMILES: CC1(C)Oc2ccc3ccc(=O)oc3c2[C@H](O)[C@@H]1O [compound 1, (−)cis-Khellactone]

Reference: article PMC10610198, “Inhibitory Activity of Natural cis-Khellactone on Soluble Epoxide Hydrolase and Proinflammatory Cytokine Production in Lipopolysaccharides-Stimulated RAW264.7 Cells” (Plants, 2023)
